Assay results from patent US20220257793A1, “COMPOSITIONS AND USE OF ENGINEERED MYOGENIC CELLS” (Institute of Zoology, Chinese Academy of Sciences, priority 2019, published 2022).

Experiments:
LTS progenitors [1] = assay: qRT-PCR after ROS-modulating drugs in LTS progenitors; format: cell-based, human
Procedure: RNA was extracted by TRIzol (Thermo Fisher) and reverse transcribed with Superscript III (Thermo Fisher) according to manufacturer's instructions. The resulting cDNA was diluted 5× before performing qPCR with KAPA SYBR FAST on ABI Prism 7900HT (Applied Biosystems) according to manufacturers' instructions. HSKM, TS and LTS cells were seeded in gelatin-coated six-well plates at a density of 4×10^4 cells/well and maintained with culture medium. One day after seeding, culture medium was replaced with culture medium containing either paraquat (Sigma-Aldrich; 2 μM), hydrogen peroxide (ICM Pharma; 100 μM), DTT (Thermo Fisher; 250 μM), 2-deoxyglucose (Sigma-Aldrich; 2.5 mM), KC7F2 (Sigma-Aldrich; 10 μM) or DMSO/H2O controls. For ROS modulators, cells were allowed to grow for 72 hours post-treatment, while for 2-DG, cells were allowed to grow for eight days post-treatment.

TS progenitors = assay: Cell counts after drug treatment, TS; format: cell-based, human
Procedure: (§1) HSKM, TS and LTS cells were seeded in gelatin-coated six-well plates at a density of 4×10^4 cells/well and maintained with culture medium. One day after seeding, culture medium was replaced with culture medium containing either paraquat (Sigma-Aldrich; 2 μM), hydrogen peroxide (ICM Pharma; 100 μM), DTT (Thermo Fisher; 250 μM), 2-deoxyglucose (Sigma-Aldrich; 2.5 mM), KC7F2 (Sigma-Aldrich; 10 μM) or DMSO/H2O controls. For ROS modulators, cells were allowed to grow for 72 hours post-treatment, while for 2-DG, cells were allowed to grow for eight days post-treatment.

LTS progenitors [2] = assay: Cell counts after drug treatment, LTS; format: cell-based, human
Procedure: as §1

HSKM progenitors = assay: Cell counts after drug treatment, HSKM; format: cell-based, human
Procedure: as §1

[3] = test system: mitochondrial ROS in HSKM, TS and LTS cells; assay: Flow cytometry oxidation state assay with mito-Grx1-roGFP2; format: cell-based, human; details: all progenitor types (HSKM, TS, LTS); H2O2 100 μM, DTT 250 μM
Procedure: HSKM, TS and LTS cells were transduced with the roGFP2 retrovirus for 48 hours. Cells were allowed to expand to 15-cm tissue culture plates and then harvested for fluorescence-activated cell sorting for roGFP2+ cells using the FITC channel with a BD FACS Aria II cell sorter. HSKM, TS and LTS cells were seeded in gelatin-coated six-well plates at a density of 4×10^4 cells/well and maintained with culture medium. […] Cells were allowed to grow for 48 hours and then harvested for flow cytometry using a BD LSR Fortessa x-20 analyzer. HSKM, TS and LTS cells were used as non-fluorescent gating controls for each of their respective roGFP2+ counterparts. For each cell line, FSC, SSC, 405 nm/AmCyan and 488 nm/FITC channels were captured. FCS files were exported from FACS Diva and imported into FlowJo, where raw-value CSV files were exported. Raw values of 405 nm/488 nm ratio was calculated and then averaged for each cell line and condition.

LTS progenitors [4] = assay: let-7 microRNA mimic transfection; format: cell-based, human
Procedure: HSKM, TS and LTS cells were seeded in gelatin-coated six-well plates at a density of 4×10^4 cells/well and maintained with culture medium. PEI (14.5 ng/μL), mature Mirvana hsa-let-7a-5p (#4464066; Assay ID: MC10050; Thermo Fisher) and/or hsa-let-7b-5p (#4464066; Assay ID: MC11050; Thermo Fisher) mimic (0.25 μM) or Cy5-conjugated scramble RNAi control, was mixed with serum-free DMEM to a total volume of 200 μL. This mixture was transfected onto each well.

diabetic nude mice = assay: Transplantation of iMusc-Insm cells into streptozotocin diabetic nude mice; format: in vivo, mouse; details: after streptozotocin treatment, before transplantation
Procedure: To determine whether differentiated iMusc-Insm cells were able to produce bioactive insulin and treat diabetes mellitus in vivo, 5×10^6 iMusc-Insm and iMusc-neo myoblast cells were transplanted by direct skeletal muscle injection into 6-8 week old male athymic nude mice (B6.Cg-Foxn1^nn/J; Jackson Labs) that have received daily intraperitoneal injections of 40 mg/kg streptozotocin (Tocris Bioscience), dissolved in 0.1M citrate buffer (pH 4.5), for 5 consecutive days, to model diabetes mellitus. Glycemia and insulinemia were measured in fed mice every 3-7 days, for 3 weeks after injection of the cells. Blood glucose was measured using a glucometer (Roche), while plasma insulin was measured by ELISA (Mercodia).

Row | Compound | progenitor proliferation (cell counts) (TS progenitors) | progenitor proliferation (cell counts) (LTS progenitors [2]) | progenitor proliferation (cell counts) (HSKM progenitors) | further results
1 | OO [H2O2, hydrogen peroxide] | no significant effects | significant suppression of LTS progenitor proliferation in a dose-dependent fashion | no significant effects | HIF1A targets and glycolysis genes mRNA (LTS progenitors [1]): could suppress; OxPhos mRNA levels (LTS progenitors [1]): failed to perturb; effect on mtROS [3]: most reliably increased mtROS
2 | hsa-let-7b-5p | – | – | – | effect on proliferation rate (cell counts) (LTS progenitors [4]): neither let-7a, nor let-7b, nor both, had any effect
3 | O[C@H](CS)[C@H](O)CS (racemic) [DTT, dithiothreitol] | no significant effects | significant suppression of LTS progenitor proliferation in a dose-dependent fashion | no significant effects | HIF1A targets and glycolysis genes mRNA (LTS progenitors [1]): could suppress; OxPhos mRNA levels (LTS progenitors [1]): failed to perturb; effect on mtROS [3]: most reliably reduced mtROS
4 | O=CC[C@@H](O)[C@H](O)[C@H](O)CO [2-deoxyglucose] | mild but significant decreases | mild but significant decreases | mild but significant decreases | –
5 | O=S(=O)(NCCSSCCNS(=O)(=O)c1cc(Cl)ccc1Cl)c1cc(Cl)ccc1Cl [KC7F2] | no significant effects | significantly suppressed LTS progenitor proliferation | no significant effects | –
6 | hsa-let-7a-5p | – | – | – | effect on proliferation rate (cell counts) (LTS progenitors [4]): neither let-7a, nor let-7b, nor both, had any effect
7 | CN(N=O)C(=O)N[C@H]1C(O)O[C@H](CO)[C@@H](O)[C@@H]1O (mixture of isomers) [streptozotocin] | – | – | – | fed glucose levels (diabetic nude mice): ~346 mg/dL; fed insulin levels (diabetic nude mice): ~63 μIU/ml
